Test results published in US9255101B2 (BIOPROJECT, priority 2012, dated 2016).
Structures can show the parent of a compound that is named as a salt.

biological target: human H4 receptor (Homo sapiens, UniProt Q9H3N8); test: biochemical
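Note: radioligand displacement of a [3H]-labelled ligand from membranes of CHO cells stably expressing human H4 receptor, bound radioactivity counted on filters by liquid scintillation.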

Sequence of human H4 receptor (Q9H3N8 whole entry): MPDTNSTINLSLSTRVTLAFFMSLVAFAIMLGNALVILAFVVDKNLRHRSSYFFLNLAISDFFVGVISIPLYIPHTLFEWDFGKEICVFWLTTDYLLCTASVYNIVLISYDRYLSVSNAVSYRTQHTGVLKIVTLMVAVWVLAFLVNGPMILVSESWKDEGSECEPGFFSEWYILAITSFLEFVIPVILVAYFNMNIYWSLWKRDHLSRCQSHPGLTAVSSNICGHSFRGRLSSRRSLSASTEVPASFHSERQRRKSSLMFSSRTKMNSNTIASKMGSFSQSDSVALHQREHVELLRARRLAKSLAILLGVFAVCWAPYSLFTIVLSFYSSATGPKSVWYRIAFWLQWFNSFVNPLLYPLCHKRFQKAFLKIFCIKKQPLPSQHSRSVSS

SMILES	Ki [µM]
CN1CCC(OC2c3ccccc3CCn3cc(-c4ccc(CSCCNC(=O)OC(C)(C)C)cc4)nc32)CC1 (stereo not drawn) [Example 199, (2-{4-[4-(1-methylpiperidin-4-yloxy)-9,10-dihydro-4H-3,10a-diaza-benzo[f]azulen-2-yl]benzylsulfanyl}-ethyl)-carbamic acid tert-butyl ester]	< 0.3
Cc1c(C#CCCO)nc2n1CCc1ccccc1C2OC1CCN(C)CC1 (stereo not drawn) [Example 227, 4-[1-methyl-4-(1-methylpiperidin-4-yloxy)-9,10-dihydro-4H-3,10a-diaza-benzo[f]azulen-2-yl]-but-3-yn-1-ol]	< 0.3
CN1CCC(OC2c3ccccc3CCn3cc(CCCOCc4ccccc4)nc32)CC1 (stereo not drawn) [Example 128, 2-(3-benzyloxypropyl)-4-(1-methylpiperidin-4-yloxy)-9,10-dihydro-4H-3,10a-diaza-benzo[f]azulene oxalate]	< 0.3
Cc1c(-c2ccc(C(=O)NCCO)cc2)nc2n1CCc1ccccc1C2OC1CCN(C)CC1 (stereo not drawn) [Example 217, N-(2-hydroxyethyl)-4-[1-methyl-4-(1-methylpiperidin-4-yloxy)-9,10-dihydro-4H-3,10a-diaza-benzo[f]azulen-2-yl]-benzamide]	< 0.3
CN1CCC(OC2c3ccccc3CCn3cc(-c4ccc(Cl)cc4)nc32)CC1 (stereo not drawn) [Example 52, 2-(4-chloro-phenyl)-4-(1-methylpiperidin-4-yloxy)-9,10-dihydro-4H-3,10a-diaza-benzo[f]azulene oxalate]	< 0.03
Cc1c(-c2ccc(N3CCN(C(C)C)C3=O)cc2)nc2n1CCc1ccccc1C2OC1CCN(C)CC1 (stereo not drawn) [Example 178, 1-isopropyl-3-{4-[1-methyl-4-(1-methylpiperidin-4-yloxy)-9,10-dihydro-4H-3,10a-diaza-benzo[f]azulen-2-yl]-phenyl}-imidazolidin-2-one]	< 0.03
Cc1c(-c2ccc(N3CCCCC3=O)cc2)nc2n1CCc1ccccc1C2OC1CCN(C)CC1 (stereo not drawn) [Example 162, 1-{4-[1-methyl-4-(1-methylpiperidin-4-yloxy)-9,10-dihydro-4H-3,10a-diaza-benzo[f]azulen-2-yl]-phenyl}-piperidin-2-one oxalate]	< 0.3
CN1CCC(OC2c3ccccc3CCn3cc(-c4ccc(CNC(=O)C(C)(C)C)cc4)nc32)CC1 (stereo not drawn) [Example 136, 2,2-dimethyl-N-{4-[4-(1-methylpiperidin-4-yloxy)-9,10-dihydro-4H-3,10a-diaza-benzo[f]azulen-2-yl]-benzyl}-propionamide]	< 0.3
CN1CCC(OC2c3ccccc3CCn3cc(-c4ccc(CN5CCOC5=O)cc4)nc32)CC1 (stereo not drawn) [Example 181, 3-{4-[4-(1-methylpiperidin-4-yloxy)-9,10-dihydro-4H-3,10a-diaza-benzo[f]azulen-2-yl]-benzyl}-oxazolidin-2-one]	< 0.3
C=C(C)Cc1nc2n(c1C(N)=O)CCc1ccccc1C2OC1CCN(C)CC1 (stereo not drawn) [Example 266, 2-(2-methylallyl)-4-(1-methylpiperidin-4-yloxy)-9,10-dihydro-4H-3,10a-diaza-benzo[f]azulene-1-carboxylic acid amide]	< 0.3
CCc1cn2c(n1)C(OC1CCN(C)CC1)c1ccccc1CC2 (stereo not drawn) [Example 13, 2-ethyl-4-(1-methylpiperidin-4-yloxy)-9,10-dihydro-4H-3,10a-diaza-benzo[f]azulene oxalate]	< 0.3
CN1CCC(OC2c3ccccc3CCn3cc(SC4CCCCC4)nc32)CC1 (stereo not drawn) [Example 98, 2-cyclohexylsulfanyl-4-(1-methylpiperidin-4-yloxy)-9,10-dihydro-4H-3,10a-diaza-benzo[f]azulene oxalate]	< 0.3
Cc1c(CCC(C)(C)C)nc2n1CCc1ccccc1C2OC1CCN(C)CC1 (stereo not drawn) [Example 229, 2-(3,3-dimethyl-butyl)-1-methyl-4-(1-methylpiperidin-4-yloxy)-9,10-dihydro-4H-3,10a-diaza-benzo[f]azulene]	< 0.03
CN1C2CCC1CC(OC1c3ccccc3CCn3c1nc(I)c3I)C2 (stereo not drawn) [Example 269, 1,2-diiodo-4-(8-methyl-8-aza-bicyclo[3.2.1]oct-3-yloxy)-9,10-dihydro-4H-3,10a-diaza-benzo[f]azulene]	< 1
CN(C)CCCOC1c2ccccc2CCn2c1nc(I)c2I (stereo not drawn) [Example 270, [3-(1,2-diiodo-9,10-dihydro-4H-3,10a-diaza-benzo[f]azulen-4-yloxy)-propyl]-dimethyl-amine]	< 1
Cc1c(-c2ccc(N3CCN(C)C3=O)cc2)nc2n1CCc1ccccc1C2OC1CCN(C)CC1 (stereo not drawn) [Example 132, 1-methyl-3-{4-[1-methyl-4-(1-methylpiperidin-4-yloxy)-9,10-dihydro-4H-3,10a-diaza-benzo[f]azulen-2-yl]-phenyl}-imidazolidin-2-one]	< 0.3
CC(C)SCc1ccc(-c2cn3c(n2)C(OC2CCN(C)CC2)c2ccccc2CC3)cc1 (stereo not drawn) [Example 186, 2-(4-isopropylsulfanylmethylphenyl)-4-(1-methylpiperidin-4-yloxy)-9,10-dihydro-4H-3,10a-diaza-benzo[f]azulene]	< 0.3
CN1CCC(OC2c3ccccc3CCn3cc(C=CC4CCCCC4)nc32)CC1 (stereo not drawn) [Example 59, 2-(2-cyclohexyl-vinyl)-4-(1-methylpiperidin-4-yloxy)-9,10-dihydro-4H-3,10a-diaza-benzo[f]azulene]	< 0.3

SMILES	Ki [µM]
CN1CCC(OC2c3cccc(Cl)c3CCn3cc(I)nc32)CC1 (stereo not drawn) [Example 78, 8-chloro-2-iodo-4-(1-methylpiperidin-4-yloxy)-9,10-dihydro-4H-3,10a-diaza-benzo[f]azulene]	< 0.3
CN1CCC(OC2c3ccccc3CCn3c2nc(-c2ccccc2Cl)c3C(N)=O)CC1 (stereo not drawn) [Example 273, 2-(2-chlorophenyl)-4-(1-methylpiperidin-4-yloxy)-9,10-dihydro-4H-3,10a-diaza-benzo[f]azulene-1-carboxylic acid amide]	< 0.3
CN1CCC(OC2c3ccccc3CCn3cc(-c4ccc(C(=O)N5CCC(=O)CC5)cc4)nc32)CC1 (stereo not drawn) [Example 215, 1-{4-[4-(1-methylpiperidin-4-yloxy)-9,10-dihydro-4H-3,10a-diaza-benzo[f]azulen-2-yl]-benzoyl}-piperidin-4-one]	< 0.3
CN1CCC(OC2c3ccccc3CCn3cc(-c4cccn4C)nc32)CC1 (stereo not drawn) [Example 83, 4-(1-methylpiperidin-4-yloxy)-2-(1-methyl-1H-pyrrol-2-yl)-9,10-dihydro-4H-3,10a-diaza-benzo[f]azulene]	< 1
Cc1c(-c2ccc(NC(=O)OCC(C)C)cc2)nc2n1CCc1ccccc1C2OC1CCN(C)CC1 (stereo not drawn) [Example 174, {4-[1-Methyl-4-(1-methyl-piperidin-4-yloxy)-9,10-dihydro-4H-3,10a-diaza-benzo[f]azulen-2-yl]-phenyl}-carbamic acid isobutyl ester]	< 0.03
CN1CCC(OC2c3ccccc3CCn3cc(-c4ccc(CN(C)C(=O)OC(C)(C)C)cc4)nc32)CC1 (stereo not drawn) [Example 182, methyl-{4-[4-(1-methylpiperidin-4-yloxy)-9,10-dihydro-4H-3,10a-diaza-benzo[f]azulen-2-yl]benzyl}-carbamic acid tert-butyl ester]	< 0.3
Cc1cc(C(F)(F)F)ccc1-c1cn2c(n1)C(OC1CCN(C)CC1)c1ccccc1CC2 (stereo not drawn) [Example 55, 4-(1-methylpiperidin-4-yloxy)-2-(2-methyl-4-trifluoromethyl-phenyl)-9,10-dihydro-4H-3,10a-diaza-benzo[f]azulene]	< 0.3
CN1CCC(OC2c3ccccc3CCn3cc(C=CCC4CCCC4)nc32)CC1 (stereo not drawn) [Example 104, 2-(3-cyclopentylpropenyl)-4-(1-methylpiperidin-4-yloxy)-9,10-dihydro-4H-3,10a-diaza-benzo[f]azulene]	< 0.03
Cc1c(-c2ccc(C3=CCCCC3)cc2)nc2n1CCc1ccccc1C2OC1CCN(C)CC1 (stereo not drawn) [Example 170, 2-(4-cyclohex-1-enylphenyl)-1-methyl-4-(1-methylpiperidin-4-yloxy)-9,10-dihydro-4H-3,10a-diaza-benzo[f]azulene]	< 0.03
CN(C)CCOC1c2ccccc2CCn2c1nc(I)c2I (stereo not drawn) [Example 264, [2-(1,2-diiodo-9,10-dihydro-4H-3,10a-diaza-benzo[f]azulen-4-yloxy)-ethyl]-dimethyl-amine]	< 1
CN1CCC(OC2c3ccccc3CCn3cc(CCc4cccs4)nc32)CC1 (stereo not drawn) [Example 126, 4-(1-methylpiperidin-4-yloxy)-2-(2-thiophen-2-ylethyl)-9,10-dihydro-4H-3,10a-diaza-benzo[f]azulene oxalate]	< 0.3
CN1CCC(OC2c3ccccc3CCn3cc(-c4ccc(C(=O)NC5CCC(O)CC5)cc4)nc32)CC1 (stereo not drawn) [Example 108, N-(4-hydroxycyclohexyl)-4-[4-(1-methylpiperidin-4-yloxy)-9,10-dihydro-4H-3,10a-diaza-benzo[f]azulen-2-yl]-benzamide]	< 1
CN1CCC(OC2c3ccccc3CCn3cc(-c4ncco4)nc32)CC1 (stereo not drawn) [Example 40, 4-(1-methylpiperidin-4-yloxy)-2-oxazol-2-yl-9,10-dihydro-4H-3,10a-diaza-benzo[f]azulene oxalate]	< 1
Cc1c(-c2ccc(C(=O)N3CCC(=O)CC3)cc2)nc2n1CCc1ccccc1C2OC1CCN(C)CC1 (stereo not drawn) [Example 218, 1-{4-[1-methyl-4-(1-methylpiperidin-4-yloxy)-9,10-dihydro-4H-3,10a-diaza-benzo[f]azulen-2-yl]-benzoyl}-piperidin-4-one]	< 0.3
CN1CCC(OC2c3ccccc3CCn3cc(C=CCCCc4ccccc4)nc32)CC1 (stereo not drawn) [Example 89, 4-(1-methylpiperidin-4-yloxy)-2-(5-phenylpent-1-enyl)-9,10-dihydro-4H-3,10a-diaza-benzo[f]azulene]	< 0.03
CN1CCC(OC2c3ccccc3CCn3cc(C4=CCOCC4)nc32)CC1 (stereo not drawn) [Example 106, 2-(3,6-dihydro-2H-pyran-4-yl)-4-(1-methyldpiperidin-4-yloxy)-9,10-dihydro-4H-3,10a-diaza-benzo[f]azulene]	< 1
C=C(C)Cc1nc2n(c1C)CCc1ccccc1C2OC1CCN(C)CC1 (stereo not drawn) [Example 260, 1-methyl-2-(2-methylallyl)-4-(1-methylpiperidin-4-yloxy)-9,10-dihydro-4H-3,10a-diaza-benzo[f]azulene]	< 0.3
CN1CCC(OC2c3ccccc3CCn3cc(Cc4ccccc4)nc32)CC1 (stereo not drawn) [Example 110, 2-benzyl-4-(1-methyl-piperidin-4-yloxy)-9,10-dihydro-4H-3,10a-diaza-benzo[f]azulene oxalate]	< 0.3
